In general, IC50 refers to the point on the concentration scale where inhibition reaches its midpoint.

Some results are limits rather than exact numbers.

The test system of assay [1] is HMEC (human mammary epithelial cells). As to the kind of experiment: MTT cytotoxicity assay, normal cells HMEC. It is filed as cell-based. Particulars: mean ± SEM of three independent experiments in triplicate. How it is done:
A panel of cancer cell lines, including breast (MDA-MB-231, BT20), brain (U251), and colon (HCT116), as well as a normal cell line (human mammary epithelial cells: HMECs), were grown as adherent monolayers in flasks with Dulbecco’s Modified Eagle Medium (DMEM), supplemented with 10% fetal bovine serum (FBS) and 1% penicillin and streptomycin in a humidified incubator with 5% CO2 at 37 °C.
The (3-(4,5-dimethylthiazol-2-yl)-2,5-diphenyltetrazolium bromide) (MTT) assay was used to determine the cytotoxicity of the 15 chrysin derivatives in the above-mentioned cell lines. Briefly, cells were harvested with 0.05% trypsin, 2.21 mM ethylenediaminetetraacetic acid (EDTA), 1× from Corning (Corning, NY, USA), and suspended at a final density of 5 × 10^3 cells/well. Cells were seeded (180 μL/well) into 96-well plates. Initially, four different concentrations of each compound were added to find the compounds with the greatest antiproliferative efficacy in the MDA-MB-231 cell line (0, 1, 10, and 100 μM). Subsequently, […] different concentrations […] of each compound were added to the remaining cell lines mentioned above. After 68 h of incubation, 20 μL of the MTT solution (4 mg/mL) were added to each well, and the plates were incubated for 4 h. This allowed viable cells to biotransform the yellow-colored MTT into dark-blue formazan crystals. Subsequently, the medium was discarded, and 150 μL of DMSO were added to each well to dissolve the formazan crystals. The absorbance was determined at 590 nm using a DTX 880 multimode detector (Beckman Coulter life sciences, IN, USA). The IC50 ± SD concentrations were calculated from three experiments performed in triplicate/duplicate. The IC50 values were calculated from the cell survival percentages obtained for each compound tested at different concentrations. Similarly, the cytotoxicity of the test compounds was compared to the normal cell line (HMEC).

The test system of assay [2] is MDA-MB-231 cells. As to the kind of experiment: Morphological observation of cells. Particulars: 20 µM. It is filed as cell-based, human. The protocol: Figure 3 Effects of 4g and 4i on cellular morphology, mitochondrial membrane potential, and cell cycle (A) Morphological observations of MDA-MB-231 cells incubated with 0, 5, and 20 µM concentrations of 4g and 4i at different time intervals of 0, 24, 48, and 72 h, respectively; (B) The MDA-MB-231 cells in complete medium were incubated with 4g and 4i at 0, 5, or 10 µM for 24 h. Cells were then incubated with the reagents of the MitoTracker Red and Alexa Fluor 488 annexin V kits for flow cytometry. Representative results of MDA-MB-231 cells from two independent experiments, each performed in triplicate, are shown; (C) Histograms quantitatively summarize the results following incubation with 4g and 4i, respectively; (D) The induction of cell cycle arrest in MDA-MB-231 cells by 4g and 4i is shown. The MDA-MB-231 cells were incubated with different concentrations (0, 5, and 10 µM) of 4g and 4i for 24 h and were subjected to cell cycle analysis by flow cytometry of PI (X axis)/cell counts (Y axis); (E) A histogram quantitatively summarizing the change in % of cells in each phase of the cell cycle due to incubation with 4g and 4i. The data represents means ± SEM of three independent experiments performed in triplicate with **** p < 0.0001 vs. control group. […]

In assay [1], `O=C(COc1cc(O)c2c(=O)cc(-c3ccccc3)oc2c1)N/N=C/c1ccc(O)cc1O` [Compound 4g, (E,Z)-N’-(2,4-Dihydroxybenzylidene)-2-((5-hydroxy-4-oxo-2-phenyl-4H-chromen-7-yl)oxy)acetohydrazide] returned a 50% inhibitory concentration (IC50) of 8 ± 1.33 µM. The cellular morphology result in assay [2] was “decreased the number of adherent MDA-MB-231 cells and induced cellular shrinkage”.
For `O=C(COc1cc(O)c2c(=O)cc(-c3ccccc3)oc2c1)N/N=C/c1ccc(O)c(O)c1O` [Compound 4i, (E,Z)-2-((5-Hydroxy-4-oxo-2-phenyl-4H-chromen-7-yl)oxy)-N’-(2,3,4-trihydroxybenzylidene)acetohydrazide], the concentration for half-maximal inhibition (IC50) in assay [1] was greater than 100 µM. For the same compound, the cellular morphology result in assay [2] is “decreased the number of adherent MDA-MB-231 cells and induced cellular shrinkage”.

Source of the values: PMC7412250, “Novel Chrysin-De-Allyl PAC-1 Hybrid Analogues as Anticancer Compounds: Design, Synthesis, and Biological Evaluation” (Molecules, 2020).
